From US12459922B2 (Gilead Sciences, Inc., priority 2022, dated 2025)

test system: endogenous cellular STAT1 (phosphorylated at Tyr701) in NCI-H1373 cells; assay: Phospho-STAT1 (Tyr701) LANCE Ultra TR-FRET Detection Assay; format: cell-based; conditions: Homo sapiens, NCI-H1373, 48 h, phospho-STAT1 (Tyr701) induction, read-out: NH1373 pSTAT1 EC50

Structure (SMILES) | EC50
Cc1ccc(-c2cc3ccn(CCC[C@H](C)Nc4cn[nH]c(=O)c4C(F)(F)F)c(=O)c3cc2F)nc1C(F)(F)F [Example 296, (S)-7-fluoro-6-(5-methyl-6-(trifluoromethyl)pyridin-2-yl)-2-(4-((6-oxo-5-(trifluoromethyl)-1,6-dihydropyridazin-4-yl)amino)pentyl)isoquinolin-1(2H)-one] | 1460 nM
C[C@@H](CCCn1ccc2cc(-c3nc(N4CCOCC4)c4sccc4n3)c(F)cc2c1=O)Nc1cn[nH]c(=O)c1C(F)(F)F [Example 298, (S)-7-fluoro-6-(4-morpholinothieno[3,2-d]pyrimidin-2-yl)-2-(4-((6-oxo-5-(trifluoromethyl)-1,6-dihydropyridazin-4-yl)amino)pentyl)isoquinolin-1(2H)-one] | 32 nM
Cc1cc(N)nc(-c2cc3ccn(CCC[C@H](C)Nc4cn[nH]c(=O)c4C(F)(F)F)c(=O)c3cc2F)n1 [Example 315, (S)-6-(4-amino-6-methylpyrimidin-2-yl)-7-fluoro-2-(4-((6-oxo-5-(trifluoromethyl)-1,6-dihydropyridazin-4-yl)amino)pentyl)isoquinolin-1(2H)-one] | 561 nM
C[C@@H](CCCn1ccc2cc(-c3ncc(C(F)(F)F)c(N4CCS(=O)(=O)C4)n3)c(F)cc2c1=O)Nc1cn[nH]c(=O)c1C(F)(F)F [Example 317, (S)-6-(4-(1,1-dioxidothiazolidin-3-yl)-5-(trifluoromethyl)pyrimidin-2-yl)-7-fluoro-2-(4-((6-oxo-5-(trifluoromethyl)-1,6-dihydropyridazin-4-yl)amino)pentyl)isoquinolin-1(2H)-one] | 45.1 nM
CC[C@@H](CCCn1cnc2cc(-c3ncc(C(F)F)c(N)n3)c(F)cc2c1=O)Nc1cn[nH]c(=O)c1C(F)(F)F [Example 320, (S)-7-(4-amino-5-(difluoromethyl)pyrimidin-2-yl)-6-fluoro-3-(4-((6-oxo-5-(trifluoromethyl)-1,6-dihydropyridazin-4-yl)amino)hexyl)quinazolin-4(3H)-one] | 31.2 nM
C[C@@H](CCCn1ccc2cc(-c3nc(C(F)(F)F)co3)c(F)cc2c1=O)Nc1cn[nH]c(=O)c1C(F)(F)F [Example 323, (S)-7-fluoro-2-(4-((6-oxo-5-(trifluoromethyl)-1,6-dihydropyridazin-4-yl)amino)pentyl)-6-(4-(trifluoromethyl)oxazol-2-yl)isoquinolin-1(2H)-one] | 260 nM
C[C@@H](CCCn1ccc2cc(-c3ncc(C(F)(F)F)cc3Cl)c(F)cc2c1=O)Nc1cn[nH]c(=O)c1C(F)(F)F [Example 326, (S)-6-(3-chloro-5-(trifluoromethyl)pyridin-2-yl)-7-fluoro-2-(4-((6-oxo-5-(trifluoromethyl)-1,6-dihydropyridazin-4-yl)amino)pentyl)isoquinolin-1(2H)-one] | 113 nM
C[C@@H](CCCn1ccc2cc(-c3ncc(C(F)(F)F)cc3N)c(F)cc2c1=O)Nc1cn[nH]c(=O)c1C(F)(F)F [Example 328, (S)-6-(3-amino-5-(trifluoromethyl)pyridin-2-yl)-7-fluoro-2-(4-((6-oxo-5-(trifluoromethyl)-1,6-dihydropyridazin-4-yl)amino)pentyl)isoquinolin-1(2H)-one] | 78.6 nM
C[C@@H](CCCn1ccc2cc(-c3cnc(C(F)F)cn3)c(F)cc2c1=O)Nc1cn[nH]c(=O)c1C(F)(F)F [Example 329, (S)-6-(5-(difluoromethyl)pyrazin-2-yl)-7-fluoro-2-(4-((6-oxo-5-(trifluoromethyl)-1,6-dihydropyridazin-4-yl)amino)pentyl)isoquinolin-1(2H)-one] | 97.7 nM
C[C@@H](CCCn1ccc2cc(-c3ccc(F)c(C(F)F)n3)c(F)cc2c1=O)Nc1cn[nH]c(=O)c1C(F)(F)F [Example 330, (S)-6-(6-(difluoromethyl)-5-fluoropyridin-2-yl)-7-fluoro-2-(4-((6-oxo-5-(trifluoromethyl)-1,6-dihydropyridazin-4-yl)amino)pentyl)isoquinolin-1(2H)-one] | 1210 nM
COc1cc(-c2cc3ccn(CCC[C@H](C)Nc4cn[nH]c(=O)c4C(F)(F)F)c(=O)c3cc2F)ncc1C(F)(F)F [Example 331, (S)-7-fluoro-6-(4-methoxy-5-(trifluoromethyl)pyridin-2-yl)-2-(4-((6-oxo-5-(trifluoromethyl)-1,6-dihydropyridazin-4-yl)amino)pentyl)isoquinolin-1(2H)-one] | 78.1 nM
C[C@@H](CCCn1ccc2cc(-c3ccc4ncsc4n3)c(F)cc2c1=O)Nc1cn[nH]c(=O)c1C(F)(F)F [Example 333, (S)-7-fluoro-2-(4-((6-oxo-5-(trifluoromethyl)-1,6-dihydropyridazin-4-yl)amino)pentyl)-6-(thiazolo[5,4-b]pyridin-5-yl)isoquinolin-1(2H)-one] | 503 nM
C[C@@H](CCCn1ccc2cc(-c3ncc(-c4ccccc4F)cn3)c(F)cc2c1=O)Nc1cn[nH]c(=O)c1C(F)(F)F [Example 336, (S)-7-fluoro-6-(5-(2-fluorophenyl)pyrimidin-2-yl)-2-(4-((6-oxo-5-(trifluoromethyl)-1,6-dihydropyridazin-4-yl)amino)pentyl)isoquinolin-1(2H)-one] | 95.1 nM
C[C@@H](CCCn1cnc2cc(-c3cnc(C(F)(F)F)c(N)n3)c(F)cc2c1=O)Nc1cn[nH]c(=O)c1C(F)(F)F [Example 337, (S)-7-(6-amino-5-(trifluoromethyl)pyrazin-2-yl)-6-fluoro-3-(4-((6-oxo-5-(trifluoromethyl)-1,6-dihydropyridazin-4-yl)amino)pentyl)quinazolin-4(3H)-one] | 36.6 nM

Now those with a lower EC50, led by results:

EC50 | Structure (SMILES)
3.71 nM | CC[C@@H](CCCn1ccc2cc(-c3ncc(C(F)F)c(N)n3)c(F)cc2c1=O)Nc1cn[nH]c(=O)c1C(F)(F)F [Example 297, (S)-6-(4-amino-5-(difluoromethyl)pyrimidin-2-yl)-7-fluoro-2-(4-((6-oxo-5-(trifluoromethyl)-1,6-dihydropyridazin-4-yl)amino)hexyl)isoquinolin-1(2H)-one]
15.5 nM | C[C@@H](CCCn1ccc2cc(-c3cnc(C(F)(F)F)c(N)n3)c(F)cc2c1=O)Nc1cn[nH]c(=O)c1C(F)(F)F [Example 316, (S)-6-(6-amino-5-(trifluoromethyl)pyrazin-2-yl)-7-fluoro-2-(4-((6-oxo-5-(trifluoromethyl)-1,6-dihydropyridazin-4-yl)amino)pentyl)isoquinolin-1(2H)-one]
28.6 nM | C[C@@H]1C[C@H](C)N1c1nc(-c2cc3ccn(CCC[C@H](C)Nc4cn[nH]c(=O)c4C(F)(F)F)c(=O)c3cc2F)ncc1C(F)(F)F [Example 318, 6-(4-((2R,4S)-2,4-dimethylazetidin-1-yl)-5-(trifluoromethyl)pyrimidin-2-yl)-7-fluoro-2-((S)-4-((6-oxo-5-(trifluoromethyl)-1,6-dihydropyridazin-4-yl)amino)pentyl)isoquinolin-1(2H)-one]
2.92 nM | Cc1nc(-c2cc3ccn(CCC[C@H](C)Nc4cn[nH]c(=O)c4C(F)(F)F)c(=O)c3cc2F)nc(N)c1Cl [Example 319, (S)-6-(4-amino-5-chloro-6-methylpyrimidin-2-yl)-7-fluoro-2-(4-((6-oxo-5-(trifluoromethyl)-1,6-dihydropyridazin-4-yl)amino)pentyl)isoquinolin-1(2H)-one]
4.11 nM | CC[C@@H](CCCn1cnc2cc(-c3ncc(C(F)(F)F)c(N)n3)c(F)cc2c1=O)Nc1cn[nH]c(=O)c1C(F)(F)F [Example 321, (S)-7-(4-amino-5-(trifluoromethyl)pyrimidin-2-yl)-6-fluoro-3-(4-((6-oxo-5-(trifluoromethyl)-1,6-dihydropyridazin-4-yl)amino)hexyl)quinazolin-4(3H)-one]
5.64 nM | C[C@@H](CCCn1ccc2cc(-c3ncc4cc(F)ccc4n3)c(F)cc2c1=O)Nc1cn[nH]c(=O)c1C(F)(F)F [Example 322, (S)-7-fluoro-6-(6-fluoroquinazolin-2-yl)-2-(4-((6-oxo-5-(trifluoromethyl)-1,6-dihydropyridazin-4-yl)amino)pentyl)isoquinolin-1(2H)-one]
4.65 nM | C[C@@H](CCCn1ccc2cc(-c3cnc(C(F)F)c(N)n3)c(F)cc2c1=O)Nc1cn[nH]c(=O)c1C(F)(F)F [Example 324, (S)-6-(6-amino-5-(difluoromethyl)pyrazin-2-yl)-7-fluoro-2-(4-((6-oxo-5-(trifluoromethyl)-1,6-dihydropyridazin-4-yl)amino)pentyl)isoquinolin-1(2H)-one]
10.6 nM | CC(C)c1cnc(-c2cc3ccn(CCC[C@H](C)Nc4cn[nH]c(=O)c4C(F)(F)F)c(=O)c3cc2F)nc1N [Example 325, (S)-6-(4-amino-5-isopropylpyrimidin-2-yl)-7-fluoro-2-(4-((6-oxo-5-(trifluoromethyl)-1,6-dihydropyridazin-4-yl)amino)pentyl)isoquinolin-1(2H)-one]
3.05 nM | Cc1nc(-c2cc3ccn(CCC[C@H](C)Nc4cn[nH]c(=O)c4C(F)(F)F)c(=O)c3cc2F)nc(N)c1C(F)(F)F [Example 327, (S)-6-(4-amino-6-methyl-5-(trifluoromethyl)pyrimidin-2-yl)-7-fluoro-2-(4-((6-oxo-5-(trifluoromethyl)-1,6-dihydropyridazin-4-yl)amino)pentyl)isoquinolin-1(2H)-one]
8.92 nM | C[C@@H](CCCn1ccc2cc(-c3cn4ccnc4c(N)n3)c(F)cc2c1=O)Nc1cn[nH]c(=O)c1C(F)(F)F [Example 332, (S)-6-(8-aminoimidazo[1,2-a]pyrazin-6-yl)-7-fluoro-2-(4-((6-oxo-5-(trifluoromethyl)-1,6-dihydropyridazin-4-yl)amino)pentyl)isoquinolin-1(2H)-one]
24.1 nM | C[C@@H](CCCn1ccc2cc(-c3nc4cnccn4n3)c(F)cc2c1=O)Nc1cn[nH]c(=O)c1C(F)(F)F [Example 334, (S)-6-([1,2,4]triazolo[1,5-a]pyrazin-2-yl)-7-fluoro-2-(4-((6-oxo-5-(trifluoromethyl)-1,6-dihydropyridazin-4-yl)amino)pentyl)isoquinolin-1(2H)-one]
5.57 nM | C[C@@H](CCCn1ccc2cc(-c3nc4cc(F)ccn4n3)c(F)cc2c1=O)Nc1cn[nH]c(=O)c1C(F)(F)F [Example 335, (S)-7-fluoro-6-(7-fluoro-[1,2,4]triazolo[1,5-a]pyridin-2-yl)-2-(4-((6-oxo-5-(trifluoromethyl)-1,6-dihydropyridazin-4-yl)amino)pentyl)isoquinolin-1(2H)-one]
